# Results published in patent publication US11661413B2, “Pyrazole compounds or salts thereof, preparation method therefor, herbicidal composition and use thereof” (priority 2015, dated 2023).
# Test system: barnyard grass, rushlike bulrush, arrowhead and beggartick
# Experiment: resistance tests of the weeds collected from Heilongjing Province
# Assay type: in vivo
# Details: common application rate; seeds collected from Heilongjing Province of China
smiles,measurement,value
CCOC(=O)c1cnn(C)c1S(=O)(=O)NC(=O)Nc1nc(OC)cc(OC)n1 [pyrazosulfuron-ethyl],resistance of the weeds (in words),resistant
